The target in assay [1] is AChE (from Electrophorus electricus) (Electrophorus electricus, UniProt O42275). Briefly: biochemical. It counts as biochemical.
The target of assay [2] is BuChE (from equine serum) (Equus caballus, UniProt P81908). Briefly: BuChE inhibitory activity, Ellman's method with slight modification. In kind it is biochemical.
Sequence of BuChE (from equine serum) (P81908 whole entry): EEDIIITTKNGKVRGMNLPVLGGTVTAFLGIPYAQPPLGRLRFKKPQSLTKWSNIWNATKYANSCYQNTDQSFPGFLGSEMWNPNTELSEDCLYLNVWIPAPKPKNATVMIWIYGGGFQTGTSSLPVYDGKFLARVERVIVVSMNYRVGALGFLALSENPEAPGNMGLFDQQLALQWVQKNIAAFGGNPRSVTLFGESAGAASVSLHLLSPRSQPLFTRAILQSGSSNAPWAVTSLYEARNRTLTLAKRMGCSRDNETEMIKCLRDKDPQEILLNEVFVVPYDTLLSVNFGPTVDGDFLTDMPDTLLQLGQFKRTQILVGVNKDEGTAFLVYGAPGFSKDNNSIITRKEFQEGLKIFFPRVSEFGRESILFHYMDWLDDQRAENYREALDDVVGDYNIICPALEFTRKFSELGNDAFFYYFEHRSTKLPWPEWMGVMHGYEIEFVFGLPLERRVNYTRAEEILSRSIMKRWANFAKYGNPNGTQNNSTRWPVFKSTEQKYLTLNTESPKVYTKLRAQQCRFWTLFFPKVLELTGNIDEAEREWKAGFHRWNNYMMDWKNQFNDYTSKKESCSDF

Sequence of AChE (from Electrophorus electricus) (O42275 24-633): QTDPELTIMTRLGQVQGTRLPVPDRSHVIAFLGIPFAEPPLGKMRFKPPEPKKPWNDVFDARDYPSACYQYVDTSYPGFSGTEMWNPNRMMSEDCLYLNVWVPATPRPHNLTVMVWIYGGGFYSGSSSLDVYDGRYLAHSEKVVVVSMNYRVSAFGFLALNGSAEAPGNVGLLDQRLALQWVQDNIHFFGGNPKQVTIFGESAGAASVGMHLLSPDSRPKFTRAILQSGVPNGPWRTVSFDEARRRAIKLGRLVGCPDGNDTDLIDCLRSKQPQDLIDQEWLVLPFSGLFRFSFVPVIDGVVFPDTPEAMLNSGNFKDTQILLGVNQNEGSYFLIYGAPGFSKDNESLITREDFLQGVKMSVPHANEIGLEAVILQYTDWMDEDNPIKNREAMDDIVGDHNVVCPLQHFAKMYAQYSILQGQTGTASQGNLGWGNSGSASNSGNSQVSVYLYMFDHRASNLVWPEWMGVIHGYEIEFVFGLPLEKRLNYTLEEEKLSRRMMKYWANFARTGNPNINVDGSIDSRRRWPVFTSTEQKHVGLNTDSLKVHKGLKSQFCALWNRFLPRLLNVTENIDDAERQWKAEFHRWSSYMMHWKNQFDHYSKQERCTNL

Take `COc1cc2c(cc1O)C(Cc1ccc(O)cc1)NCC2` (stereo not shown) [Compound 44, coclaurine]: the IC50 in assay [1] was 40.9 ± 0.67 µM; in assay [2], 20.5 ± 0.42 µM.
Regarding `CN1CCc2cc3c(c4c2C1Cc1ccccc1-4)OCO3` (stereo not shown) [Compound 22, roemerine], the concentration for half-maximal inhibition (IC50) in assay [1] is 8.32 ± 0.12 µM; in assay [2] it was 2.85 ± 0.08 µM. Also, the “BuChE inhibition, fold more active than galanthamine” value in assay [2] is on record as “approximately 1.3 fold”.
As for `COc1cc2cc3c4c(cc5c(c4c2cc1OC)OCO5)CCN3C` [Compound 42, dehydrodicentrine], in assay [2] (relative to the aporphine group, comparator not named), the “anti-BuChE activity, fold increase of the dehydroaporphine” value is on record as 4.7 fold.
Compound `COc1cc2c(cc1O)[C@@H]1Cc3ccc(O)c(OC)c3CN1CC2` [Compound 12, stepholidine] showed an IC50 in assay [2] of 221.2 ± 1.62 µM.
Consider `COc1ccc2c(c1OC)CC1c3c(cc4c(c3-2)OCO4)CCN1C` (stereo not shown) [Compound 25, crebanine], for which, in assay [1], 17.4 ± 0.22 µM corresponded to half-maximal inhibition (IC50) and the “anti-AChE activity, fold less active than the 9,10-dimethoxy analogue 26” value is on record as 2.8 fold. In assay [2], the IC50 came out at 10.5 ± 0.27 µM and the “anti-BuChE activity, fold higher than that of 26” value is recorded as 2.5 fold.
`COc1cc2c(cc1OC)[C@@H]1Cc3ccc(OC)c(OC)c3CN1CC2` [Compound 14, tetrahydropalmatine] yielded an IC50 in assay [2] of 65.3 ± 0.8 µM.
On to `COC1=C[C@]23CCN(C)[C@H](Cc4ccc(OC)c(O)c42)C3=CC1=O` [Compound 45, salutaridine], for which the IC50 in assay [1] is 7.49 ± 0.66 µM.
The same measure, in the same setting: for `COc1cc2c(cc1OC)-c1c3c(cc4ccnc(c14)C2=O)OCO3` [Compound 35, dicentrinone] the value was 265.8 ± 0.8 µM.
Consider `COc1cc2c(cc1O)CC[n+]1cc3c(OC)c(OC)ccc3cc1-2` [Compound 18, jatrorrhizine], for which the IC50 is 12.3 ± 0.44 µM in assay [1] and 31.46 ± 0.2 µM in assay [2].

For the origin of these results see publication PMC9034021 (RSC Advances, 2021).
